Results as given in US9663460B2, “Sulfur derivatives as chemokine receptor modulators” (ALLERGAN, INC., priority 2010, dated 2017).

Each compound was assayed against CCR2 (Homo sapiens (Human), UniProt P41597) (assay: Calcium activity assayed on the FLIPR Tetra in HEK-Gqi5 cells stably expressing CCR2). Settings: FLIPR Tetra calcium assay.
Assay type: cell-based

CCR2, sequence (P41597 whole entry, species assumed): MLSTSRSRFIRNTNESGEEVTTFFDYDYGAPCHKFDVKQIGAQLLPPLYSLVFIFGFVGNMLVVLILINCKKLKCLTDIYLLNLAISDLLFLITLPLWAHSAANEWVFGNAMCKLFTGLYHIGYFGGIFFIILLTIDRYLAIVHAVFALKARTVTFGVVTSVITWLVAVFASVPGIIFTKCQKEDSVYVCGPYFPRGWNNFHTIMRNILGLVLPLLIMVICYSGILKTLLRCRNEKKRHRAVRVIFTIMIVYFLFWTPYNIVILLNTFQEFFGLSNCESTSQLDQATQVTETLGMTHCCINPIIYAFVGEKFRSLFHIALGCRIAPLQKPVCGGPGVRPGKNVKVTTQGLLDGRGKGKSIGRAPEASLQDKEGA

SMILES	CCR2 % ANTAGONISM [%]	IC50 [nM]
O=S(=O)(Nc1cc(Cl)ccc1[S+]([O-])Cc1cccnc1F)c1cc2ccccc2o1 (stereo not drawn) [N-(5-chloro-2-{[(2-fluoropyridin-3-yl)methyl]sulfinyl}phenyl)-1-benzofuran-2-sulfonamide]	95	79
O=S(=O)(Cc1cccnc1F)c1ccc(Cl)cc1NS(=O)(=O)c1cc2ccccc2o1 [N-(5-chloro-2-{[(2-fluoropyridin-3-yl)methyl]sulfonyl}phenyl)-1-benzofuran-2-sulfonamide]	88	79
O=S(=O)(Nc1cc(Cl)ccc1SCc1cccnc1F)c1cc2ccccc2o1 [N-(5-chloro-2-{[(2-fluoropyridin-3-yl)methyl]thio}phenyl)-1-benzofuran-2-sulfonamide]	76	94
O=C1NCC(C[S+]([O-])c2ccc(Cl)cc2NS(=O)(=O)c2cc3ccccc3o2)O1 (stereo not drawn) [N-(5-chloro-2-{[(2-oxo-1,3-oxazolidin-5-yl)methyl]sulfinyl}phenyl)-1-benzofuran-2-sulfonamide]	79	2130
O=C1NCC(CS(=O)(=O)c2ccc(Cl)cc2NS(=O)(=O)c2cc3ccccc3o2)O1 (stereo not drawn) [N-(5-chloro-2-{[(2-oxo-1,3-oxazolidin-5-yl)methyl]sulfonyl}phenyl)-1-benzofuran-2-sulfonamide]	98	2560
O=[N+]([O-])c1cc(C[S+]([O-])c2ccc(Cl)cc2NS(=O)(=O)c2cc3ccccc3o2)n[nH]1 (stereo not drawn) [N-(5-chloro-2-{[(5-nitro-1H-pyrazol-3-yl)methyl]sulfinyl}phenyl)-1-benzofuran-2-sulfonamide]	94	752
O=[N+]([O-])c1cc(CSc2ccc(Cl)cc2NS(=O)(=O)c2cc3ccccc3o2)n[nH]1 [N-(5-chloro-2-{[(5-nitro-1H-pyrazol-3-yl)methyl]thio}phenyl)-1-benzofuran-2-sulfonamide]	91	
O=S(=O)(Nc1cc(Cl)ccc1[S+]([O-])Cc1ccccc1)c1cc2ccccc2o1 (stereo not drawn) [N-[2-(benzylsulfinyl)-5-chlorophenyl]-1-benzofuran-2-sulfonamide]	85	27
N#Cc1ccc([S+]([O-])Cc2ccccc2)c(NS(=O)(=O)c2cc3ccccc3o2)c1 (stereo not drawn) [N-[2-(benzylsulfinyl)-5-cyanophenyl]-1-benzofuran-2-sulfonamide]	105	50
O=S(=O)(Cc1ccccc1)c1ccc(Cl)cc1NS(=O)(=O)c1cc2ccccc2o1 [N-[2-(benzylsulfonyl)-5-chlorophenyl]-1-benzofuran-2-sulfonamide]	90	34
N#Cc1ccc(S(=O)(=O)Cc2ccccc2)c(NS(=O)(=O)c2cc3ccccc3o2)c1 [N-[2-(benzylsulfonyl)-5-cyanophenyl]-1-benzofuran-2-sulfonamide]	95	56
O=S(=O)(Nc1cc(Cl)ccc1SCc1ccccc1)c1cc2ccccc2o1 [N-[2-(benzylthio)-5-chlorophenyl]-1-benzofuran-2-sulfonamide]	90	129
N#Cc1ccc(SCc2ccccc2)c(NS(=O)(=O)c2cc3ccccc3o2)c1 [N-[2-(benzylthio)-5-cyanophenyl]-1-benzofuran-2-sulfonamide]	78	3840
NC(=O)NCC[S+]([O-])c1ccc(Cl)cc1NS(=O)(=O)c1cc2ccccc2o1 (stereo not drawn) [N-[2-({2-[(aminocarbonyl)amino]ethyl}sulfinyl)-5-chlorophenyl]-1-benzofuran-2-sulfonamide]	64	1890
NC(=O)NCCS(=O)(=O)c1ccc(Cl)cc1NS(=O)(=O)c1cc2ccccc2o1 [N-[2-({2-[(aminocarbonyl)amino]ethyl}sulfonyl)-5-chlorophenyl]-1-benzofuran-2-sulfonamide]	68	2000
NC(=O)NCCSc1ccc(Cl)cc1NS(=O)(=O)c1cc2ccccc2o1 [N-[2-({2-[(aminocarbonyl)amino]ethyl}thio)-5-chlorophenyl]-1-benzofuran-2-sulfonamide]	103	80
C[S+]([O-])c1ccc(Cl)cc1NS(=O)(=O)c1cc2ccccc2o1 (stereo not drawn) [N-[5-chloro-2-(methylsulfinyl)phenyl]-1-benzofuran-2-sulfonamide]	98	11
C[S+]([O-])c1ccc(Cl)cc1NS(=O)(=O)c1ccc(F)cc1F (stereo not drawn) [N-[5-chloro-2-(methylsulfinyl)phenyl]-2,4-difluorobenzenesulfonamide]	98	236
C[S+]([O-])c1ccc(Cl)cc1NS(=O)(=O)c1ccc(C(F)(F)F)c([N+](=O)[O-])c1 (stereo not drawn) [N-[5-chloro-2-(methylsulfinyl)phenyl]-3-nitro-4-(trifluoromethyl)benzenesulfonamide]	97	54

Second part, the compound after the results:

CCR2 % ANTAGONISM [%]	IC50 [nM]	SMILES
95	258	C[S+]([O-])c1ccc(Cl)cc1NS(=O)(=O)c1ccc(I)cc1 (stereo not drawn) [N-[5-chloro-2-(methylsulfinyl)phenyl]-4-iodobenzenesulfonamide]
68	934	CC(C)c1ccc(S(=O)(=O)Nc2cc(Cl)ccc2[S+](C)[O-])cc1 (stereo not drawn) [N-[5-chloro-2-(methylsulfinyl)phenyl]-4-isopropylbenzenesulfonamide]
101	181	Cc1ccc(S(=O)(=O)Nc2cc(Cl)ccc2[S+](C)[O-])cc1[N+](=O)[O-] (stereo not drawn) [N-[5-chloro-2-(methylsulfinyl)phenyl]-4-methyl-3-nitrobenzenesulfonamide]
76	194	Cc1ccc(S(=O)(=O)Nc2cc(Cl)ccc2[S+](C)[O-])o1 (stereo not drawn) [N-[5-chloro-2-(methylsulfinyl)phenyl]-5-methylfuran-2-sulfonamide]
48		C[S+]([O-])c1ccc(Cl)cc1NS(=O)(=O)c1ccccc1 (stereo not drawn) [N-[5-chloro-2-(methylsulfinyl)phenyl]benzenesulfonamide]
96	2320	C[S+]([O-])c1ccc(Cl)cc1NS(=O)(=O)c1ccco1 (stereo not drawn) [N-[5-chloro-2-(methylsulfinyl)phenyl]furan-2-sulfonamide]
53	1110	C[S+]([O-])c1ccc(Cl)cc1NS(=O)(=O)c1cccs1 (stereo not drawn) [N-[5-chloro-2-(methylsulfinyl)phenyl]thiophene-2-sulfonamide]
93	42	CS(=O)(=O)c1ccc(Cl)cc1NS(=O)(=O)c1cc2ccccc2o1 [N-[5-chloro-2-(methylsulfonyl)phenyl]-1-benzofuran-2-sulfonamide]
91	354	CS(=O)(=O)c1ccc(Cl)cc1NS(=O)(=O)c1ccc(F)cc1F [N-[5-chloro-2-(methylsulfonyl)phenyl]-2,4-difluorobenzenesulfonamide]
97	213	CS(=O)(=O)c1ccc(Cl)cc1NS(=O)(=O)c1ccc(C(F)(F)F)c([N+](=O)[O-])c1 [N-[5-chloro-2-(methylsulfonyl)phenyl]-3-nitro-4-(trifluoromethyl)benzenesulfonamide]
92	1070	CS(=O)(=O)c1ccc(Cl)cc1NS(=O)(=O)c1ccc(I)cc1 [N-[5-chloro-2-(methylsulfonyl)phenyl]-4-iodobenzenesulfonamide]
0		CC(C)c1ccc(S(=O)(=O)Nc2cc(Cl)ccc2S(C)(=O)=O)cc1 [N-[5-chloro-2-(methylsulfonyl)phenyl]-4-isopropylbenzenesulfonamide]
89	207	Cc1ccc(S(=O)(=O)Nc2cc(Cl)ccc2S(C)(=O)=O)cc1[N+](=O)[O-] [N-[5-chloro-2-(methylsulfonyl)phenyl]-4-methyl-3-nitrobenzenesulfonamide]
90	990	Cc1ccc(S(=O)(=O)Nc2cc(Cl)ccc2S(C)(=O)=O)o1 [N-[5-chloro-2-(methylsulfonyl)phenyl]-5-methylfuran-2-sulfonamide]
99	345	CS(=O)(=O)c1ccc(Cl)cc1NS(=O)(=O)c1ccco1 [N-[5-chloro-2-(methylsulfonyl)phenyl]furan-2-sulfonamide]
99	26	CSc1ccc(Cl)cc1NS(=O)(=O)c1cc2ccccc2o1 [N-[5-chloro-2-(methylthio)phenyl]-1-benzofuran-2-sulfonamide]
87		CSc1ccc(Cl)cc1NS(=O)(=O)c1ccc(F)cc1F [N-[5-chloro-2-(methylthio)phenyl]-2,4-difluorobenzenesulfonamide]
90	491	CSc1ccc(Cl)cc1NS(=O)(=O)c1ccc(C(F)(F)F)c([N+](=O)[O-])c1 [N-[5-chloro-2-(methylthio)phenyl]-3-nitro-4-(trifluoromethyl)benzenesulfonamide]
71	2030	CSc1ccc(Cl)cc1NS(=O)(=O)c1ccc(I)cc1 [N-[5-chloro-2-(methylthio)phenyl]-4-iodobenzenesulfonamide]
92	680	CSc1ccc(Cl)cc1NS(=O)(=O)c1ccc(C)c([N+](=O)[O-])c1 [N-[5-chloro-2-(methylthio)phenyl]-4-methyl-3-nitrobenzenesulfonamide]
77	70	CSc1ccc(Cl)cc1NS(=O)(=O)c1ccc(C)o1 [N-[5-chloro-2-(methylthio)phenyl]-5-methylfuran-2-sulfonamide]
93	940	CSc1ccc(Cl)cc1NS(=O)(=O)c1ccco1 [N-[5-chloro-2-(methylthio)phenyl]furan-2-sulfonamide]
0		CSc1ccc(Cl)cc1NS(=O)(=O)c1cccs1 [N-[5-chloro-2-(methylthio)phenyl]thiophene-2-sulfonamide]
93	115	Nc1ccccc1C[S+]([O-])c1ccc(Cl)cc1NS(=O)(=O)c1cc2ccccc2o1 (stereo not drawn) [N-{2-[(2-aminobenzyl)sulfinyl]-5-chlorophenyl}-1-benzofuran-2-sulfonamide]
